# From PMC10489073 (Molecules, 2023)
# Experiments:
# [1] = test system: P3x63Ag8.653; assay: Cell proliferation analysis (MTT); assay type: cell-based, murine; conditions: Mus musculus, 48 h, read-out: Anti-proliferative activity IC50, P3x63Ag8.653
# Experimental: (§1) All tumor cell lines in the current research were grown in a certain growth medium containing 10% FBS and 1% (v/v/v) penicillin–streptomycin–amphotericin at 37 °C in 5% CO2. Cells were seeded into 96-well plates at a density of 8 × 10^3 cells per well for tumor adherent cells and 2 × 10^4 cells per well for tumor-suspended cells in a final volume of 100 μL. After 12 h, 100 μL of various concentrations of compounds was added to each and incubated for 48 h. A 0.5% MTT solution was added per well before the intermixture was incubated for another 4 h, and formazan formed from MTT was extracted by adding […] of DMSO rocking for 15 min. Absorbance was measured at 570 nm using a Spark multimode microplate from Tecan. The IC50 values were calculated according to the inhibition ratios.
# [2] = biological target: T1, CD13 from Porcine Kidney (Sus scrofa, UniProt P15145); assay: CD13 inhibition assay (porcine aminopeptidase, L-leucine-p-nitroanilide); assay type: biochemical; conditions: mean ± SD, n ≥ 3; read-out: IC50 toward CD13 from Porcine Kidney
# T1 construct: purchased Sigma Chemical Co., St. Louis, MO, USA
# T1 sequence (P15145 whole entry): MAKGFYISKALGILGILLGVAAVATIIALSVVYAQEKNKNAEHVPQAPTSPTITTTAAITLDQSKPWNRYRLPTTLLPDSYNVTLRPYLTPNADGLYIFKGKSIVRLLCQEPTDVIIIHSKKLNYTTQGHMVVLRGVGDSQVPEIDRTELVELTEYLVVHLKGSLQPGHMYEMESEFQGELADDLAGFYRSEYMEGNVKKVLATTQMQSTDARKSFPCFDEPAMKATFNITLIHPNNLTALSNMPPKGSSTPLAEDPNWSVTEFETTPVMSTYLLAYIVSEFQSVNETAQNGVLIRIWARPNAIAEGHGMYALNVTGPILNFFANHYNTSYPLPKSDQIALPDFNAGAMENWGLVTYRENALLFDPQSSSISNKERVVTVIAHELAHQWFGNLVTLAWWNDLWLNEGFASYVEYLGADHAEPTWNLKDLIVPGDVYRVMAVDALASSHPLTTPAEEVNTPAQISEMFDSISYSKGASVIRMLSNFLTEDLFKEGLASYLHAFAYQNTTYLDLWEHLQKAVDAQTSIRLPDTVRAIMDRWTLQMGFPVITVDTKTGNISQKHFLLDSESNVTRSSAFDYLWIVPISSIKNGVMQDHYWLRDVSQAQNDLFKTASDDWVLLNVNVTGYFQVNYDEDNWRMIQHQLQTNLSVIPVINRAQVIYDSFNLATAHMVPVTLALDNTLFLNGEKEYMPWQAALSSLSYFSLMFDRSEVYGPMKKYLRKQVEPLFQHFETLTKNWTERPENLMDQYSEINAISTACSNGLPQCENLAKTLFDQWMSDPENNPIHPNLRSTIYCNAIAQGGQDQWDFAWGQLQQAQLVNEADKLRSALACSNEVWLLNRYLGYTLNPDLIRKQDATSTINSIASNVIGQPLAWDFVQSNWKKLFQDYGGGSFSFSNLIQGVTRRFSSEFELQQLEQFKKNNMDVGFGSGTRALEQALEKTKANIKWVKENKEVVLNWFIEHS
# Experimental: L-leucine-p-nitroanilide can be degraded by recombinant human aminopeptidase (R&D systems) or procine aminopeptidase (Sigma Chemical Co., St. Louis, MO, USA) and produce light absorption at 405 nm. The CD13 inhibitory activity of synthetic compounds was identified according to the degree of degradation of L-leucine-p-nitroanilide. L-leucine-p-nitroanilide was dissolved in DMSO and mixed with tested compounds in a transparent 96-well plate; then, aminopeptidase was added using phosphate solution (pH 7.2) as the assay buffer. After incubation at 37 °C for 30 min, the absorption was detected under a 405 nm wavelength via Tecan Spark multimode microplate.
# [3] = biological target: T2, chymotrypsin-like (CT-L) activity of the 20S proteasome (Homo sapiens, UniProt P20618+P28074); assay: 20S proteasome inhibition assay (Proteasome-Glo Chymotrypsin-Like); assay type: biochemical; conditions: n ≥ 3, SD <20% of the mean, read-out: IC50 toward Chymotrypsin-like (CT-L)
# T2 construct: purchased R&D systems, Minneapolis, MN, USA
# Experimental: The 20S proteasome inhibition assay was performed using the Proteasome-Glo™ Chymotrypsin-Like Assay kit (Promega, Alexandria, NSW, Australia). Suc-LLVY-aminoluciferin is a substate that can be cleaved by the 20S proteasome, release the […] (aminoluciferin) and allow the luciferase reaction to produce light. Gradient concentration of tested compounds and the purified 20S proteasome enzyme (R&D systems, Minneapolis, MN, USA) were successively added into a transparent 96-well plate and mixed thoroughly. Then, 50 µL of a […] reagent was added. Gently mix contents with a plate shaker at 300 to 500 rpm for 30 s. Incubate at room temperature for an hour. The luminescence was recorded via the Tecan Spark multimode microplate.
# [4] = test system: HEK293; assay: Cell proliferation analysis (MTT), normal cells; assay type: cell-based; conditions: Homo sapiens, non-malignant cell line, 48 h, read-out: Anti-proliferative activity IC50, HEK293
# Experimental: as §1
# [5] = test system: HL-7702; assay: Cell proliferation analysis (MTT), normal cells; assay type: cell-based; conditions: Homo sapiens, L02, non-malignant cell line, 48 h, read-out: Anti-proliferative activity IC50, HL-7702
# Experimental: as §1
# [6] = test system: subcutaneous P3x63Ag8.653 tumor; assay: In vivo P3x63Ag8.653 tumor transplant model; design: species or system mice
# Experimental: The animal experiments were conducted under the guidelines of the “Regulations for the Administration of Affairs Concerning Experimental Animals” (revised 2017, State Council No. 676). For the P3x63Ag8.653 tumor development, male mice were subcutaneously injected with 200 μL murine P3x63Ag8.653 cells with a density of 1 × 10^7/mL. On the eighth day after injection, the transplanted mice were randomized into treatment and control groups. The tested compounds were administrated orally at the prescribed dose biweekly for two weeks. After two weeks of administration, mice were executed, and the tumor tissues were dissected and weighed. T/C was calculated according to the following formula: T/C = the mean RTV of the treated group/the mean RTV of the control group, where RTV is the relative tumor volume = Vt/V0 (Vt, the tumor volume measured at the end of treatment; V0, the tumor volume measured at the beginning of treatment).
# [7] = test system: B16F10 cells; assay: Survival time in mice bearing B16F10 cells; assay type: in vivo, C57BL/6 mice; conditions: for median survival time (MST): twice a week for two weeks, vehicle group 16 days
# Experimental: The animal experiments were conducted under the guidelines of the “Regulations for the Administration of Affairs Concerning Experimental Animals” (revised 2017, State Council No. 676). Female C57/B6 mice at 5 to 6 weeks were implanted via intraperitoneal (ip) injection with 5.0 × 10^6 B16F10 cells per individual and randomly assigned into control groups and treatment groups. Seven days after inoculation, mice from the control group were treated orally with DMSO in a vehicle, whereas the compound group mice were treated with specified concentrations of compounds by oral administration twice a week for two weeks. The survival percentage of the mice in each group was recorded and plotted. The anti-tumor activity of the drug was evaluated by measuring the median survival time (MST) for each group.
# [8] = test system: macrophage phagocytic activity (MPA) of the reticular endothelial system; assay: Macrophage phagocytosis by carbon clearance test; assay type: in vivo, Kunming mice; conditions: twice a week for two weeks; for Carbon Clearance Index (K): Ctrl 0.057 ± 0.0061; for Phagocytosis Index (α): Ctrl 5.36 ± 0.19
# Experimental: The animal experiments were conducted under the guidelines of the “Regulations for the Administration of Affairs Concerning Experimental Animals” (revised 2017, State Council No. 676). Kunming mice were randomly divided into control groups and treatment groups. After oral administration of test compounds twice a week for two weeks, the mice were injected with carbon ink suspension (Indian Ink, Camel) (100 μL/10 g of body weight) via the tail vein. Two and ten minutes after the injection of carbon suspension, the blood samples were collected from a retro-orbital vein. A total of 25 μL of a blood sample was directly added into 2 mL of 0.1% sodium carbonate solution. The absorbance of the sample was measured at 600 nm using a UV-visible spectrophotometer. The K value was calculated by the formula Log (OD2) − Log (OD10)/(T2 − T1), where OD2 and OD10 were the absorbance of blood at 2 and 10 min, respectively; T2 is the last time point of blood collection; T1 is the first time point of blood collection. The α value was calculated by the formula (k^1/3 × body weight)/(liver weight + spleen weight).
structure (smiles),measurement,setting,value
"CC(C)C[C@H](NC(=O)[C@@H](O)[C@H](N)Cc1ccccc1)B1OC(=O)C(CC(=O)O)(CC(=O)O)O1 [BC-05, 2,2′-(2-((R)-1-((2S,3R)-3-amino-2-hydroxy-4-phenylbutanamido)-3-methylbutyl)-5-oxo-1,3,2-dioxaborolane-4,4-diyl)diacetic acid]",IC50,[1],17.7 ± 0.75 µM
same,IC50,[2],0.65 ± 0.05 µM
same,IC50,[3],1.39 µM
same,IC50,[4],> 200 µM
same,IC50,[5],> 200 µM
same,T/C (relative tumor volume),"[6]; 0.008 mmol/kg oral, two weeks",31.2%
same,body weight loss and side effects,"[6]; tumor-bearing mice, during oral administration",No obvious body weight loss and discernible side effects
same,MST increase compared to the vehicle group,[7]; 0.008 mmol/kg oral,1.4 fold
same,median survival time (MST),[7]; 0.008 mmol/kg oral,22 days
same,MST increase compared to the vehicle group,[7]; 0.012 mmol/kg oral,1.6 fold
same,median survival time (MST),[7]; 0.012 mmol/kg oral,25 days
same,Carbon Clearance Index (K),[8]; 0.006 mmol/kg oral,0.066 ± 0.0077
same,Phagocytosis Index (α),[8]; 0.006 mmol/kg oral,6.60 ± 0.26
same,Carbon Clearance Index (K),[8]; 0.008 mmol/kg oral,0.076 ± 0.0016
same,Phagocytosis Index (α),[8]; 0.008 mmol/kg oral,6.61 ± 0.05
